One assay has as its system PDE4B. The assay is described as follows: Phosphodiesterase activity in anti-PDE4B immunoprecipitates from treated tracheal smooth muscle cells. The assay is classed as cell-based, mouse. The settings on record: tracheal smooth muscle cells of wild-type mice (PI3Kγ+/+); 50 μM, 30 minutes. As to the method:
For protein extraction from murine tracheal smooth muscle cells (mTSMCs) and human bronchial smooth muscle cells (hBSMCs), cells were treated with the indicated drugs/peptides and immediately lysed in cold lysis buffer containing 120 mmol/L NaCl, 50 mmol/L Tris-HCl (pH 8.0), complete protease inhibitors (Roche Applied Science, Indianapolis, Ind.) and phosphatase inhibitors (50 mmol/L sodium fluoride, 1 mmol/L sodium orthovanadate and 10 mmol/L sodium pyrophosphate). After 30 min of incubation on ice, lysates were centrifuged at 13000 rpm for 10 min at 4° C. and used for either Western blotting or subjected to immunoprecipitation and measurements of phosphodiesterase activity. […]
Phosphodiesterase activity in immunoprecipitates was measured according to the two-step method of Thompson and Appleman, as previously described (2), with minor modifications. […] The amount of radiolabeled adenosine in the supernatant was quantified by scintillation counting (Ultima Gold liquid scintillation from Perkin Elmer, Waltham, Mass.).
Murine tracheal smooth muscle cells were cultured from explants of trachea using previously described methods with modifications. […] More than 90% of these cells were smooth muscle cells, as determined by immunofluorescence performed with an antibody specific for smooth muscle actin. […]

The next assay has as its system CFTR. The assay is described as follows: cAMP-mediated (PKA) phosphorylation of CFTR in NuLi-1 cells. The assay is classed as cell-based, human. Conditions: 30 minutes. As to the method: Human airway epithelial cell lines expressing a wild-type CFTR (NuLi-1) or with the ΔF508 mutation (CuFi-1) were purchased from ATCC (NuLi-1 product code: ATCC® CRL-4011™; CuFi-1 product code: ATCC® CRL-4013™). Cells were cultured in Dulbecco's Modified Eagle Medium (DMEM, Gibco, Carlsbad, Calif.) supplemented with 10% fetal bovine serum (FBS), 30 μg/mL of penicillin, 100 μg/mL of streptomycin and 300 μg/mL hygromycin B (Gibco, Carlsbad, Calif.).
For immunoprecipitation assays, protein extracts were pre-incubated with 30 μL of a 1:1 mixture of protein A or G and sepharose (Amersham Biosciences, Buckinghamshire, UK) and subsequently incubated with 20 μL of a 1:1 mixture of protein A or G and sepharose and […] of primary antibody for each mg of protein, for 2 hours at 4° C. Immune complexes were washed extensively with lysis buffer and used for Western blotting or subjected to measurements of phosphodiesterase activity.
The antibody that recognizes substrates phosphorylated by PKA (P-PKA substrate) was purchased from Cell Signaling Technology (Danvers, Mass., USA; product code: #9621) and the antibody against CFTR clone M3A7 from Millipore (Billerica, Mass., USA; product code: 05-583).

“RQIKIWFQNRRMKWKKGKATHRSPGQIHLVQRHPPSEESQAF (fusion peptide comprising SEQ ID No.1 and SEQ ID No.3) [Trojan peptide derived from PI3Kγ]”: in the assay on PDE4B, the “catalytic activity of PDE4B” value is given as “significantly reduced”. Moreover, the “CFTR phosphorylation (cAMP-mediated)” value with CFTR (25 μM, vs vehicle or P1) is recorded as “significantly higher”. In the assay with CFTR (peptide 25 μM together with Rolipram 10 μM), the “cAMP-dependent CFTR phosphorylation induced by a PDE4 inhibitor” value is “further enhanced”.

For the origin of these results see patent US11352400B2, “PI3K gamma inhibitor peptide for treatment of respiratory system diseases” (Kither Biotech S.r.I., priority 2014, dated 2022).
